Test results taken from BindingDB's records for patent US20250313563 (The Broad Institute, 2025).
pIC50: −log10 of the molar value. “And” between values parts separate entries of the source, which are not always exact repeats. Equal entries are not always repeated.

Tests used:
[1] = biological target: Glycogen synthase kinase-3 beta (Homo sapiens, UniProt P49841); assay: TR-FRET Assay
Procedure, shortened: (§1)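 TR-FRET readout: streptavidin-d2 (40 nM in added detection mix) plus Tb-anti-pSer641 Ab (2 nM in mix). Steps were 30 min compound preincubation, kinase reaction, then EDTA stop.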

[2] = biological target: Glycogen synthase kinase-3 alpha (Homo sapiens, UniProt P49840); assay: TR-FRET Assay
Sequence of Glycogen synthase kinase-3 alpha (P49840 whole entry): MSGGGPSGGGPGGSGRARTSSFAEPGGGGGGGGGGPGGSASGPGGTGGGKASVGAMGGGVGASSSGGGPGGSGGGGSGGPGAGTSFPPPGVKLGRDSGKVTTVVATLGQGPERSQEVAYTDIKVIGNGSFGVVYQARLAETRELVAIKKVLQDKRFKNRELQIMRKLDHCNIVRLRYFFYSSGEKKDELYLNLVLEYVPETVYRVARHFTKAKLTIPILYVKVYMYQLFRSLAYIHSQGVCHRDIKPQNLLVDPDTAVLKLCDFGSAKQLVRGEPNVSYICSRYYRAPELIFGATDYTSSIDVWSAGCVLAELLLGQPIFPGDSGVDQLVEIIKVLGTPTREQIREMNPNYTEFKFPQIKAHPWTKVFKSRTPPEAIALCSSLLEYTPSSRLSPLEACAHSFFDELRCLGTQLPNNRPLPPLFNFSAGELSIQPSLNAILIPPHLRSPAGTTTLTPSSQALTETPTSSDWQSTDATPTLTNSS
Procedure, shortened: as §1

Sequence of Glycogen synthase kinase-3 beta (P49841 whole entry): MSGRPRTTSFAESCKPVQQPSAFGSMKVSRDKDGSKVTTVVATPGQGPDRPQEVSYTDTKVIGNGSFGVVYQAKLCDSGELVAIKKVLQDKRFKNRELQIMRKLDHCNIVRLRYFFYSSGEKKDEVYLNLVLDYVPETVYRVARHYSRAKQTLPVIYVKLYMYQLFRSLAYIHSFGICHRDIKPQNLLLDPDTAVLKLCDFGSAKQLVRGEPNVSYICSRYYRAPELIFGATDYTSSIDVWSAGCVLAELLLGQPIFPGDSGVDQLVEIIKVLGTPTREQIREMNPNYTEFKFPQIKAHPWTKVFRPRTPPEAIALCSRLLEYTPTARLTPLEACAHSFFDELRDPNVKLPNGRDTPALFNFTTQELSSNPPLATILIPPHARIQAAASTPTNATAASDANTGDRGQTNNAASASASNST

Row | SMILES | pIC50 [1] | pIC50 [2]
1 | CC1(C)CC(=O)C2=C(C1)NC1=C(CN=N1)[C@@]21COC2(CN(S(C)(=O)=O)C2)C1 [US20250313563, Compound 913057] | > 7.00 | > 7.00
2 | CC[C@@]1(c2cccc(C)c2)C2=CN=NC2NC2=C1C(=O)CC(C)(C)C2 (some centres undefined) [US20250313563, Compound 789561] | < 5.30 | 5.30 to 6.00
3 | CCC1(COCc2ccccc2)C2=C(N=NC2)NC2=C1C(=O)CC(C)(C)C2 (centres undefined) [US20250313563, Compound 874313] | 5.30 to 6.00 | 5.30 to 6.00
4 | CC1(C)CC(=O)C2=C(C1)NC1=C(CN=N1)C21CN(Cc2cnc3ccccn23)C1 [US20250313563, Compound 932654] | < 5.30 | < 5.30
5 | CC[C@]1(c2cccc(N3CCOc4ncccc43)c2)C2=CN=NC2NC2=C1C(=O)CC(C)(C)C2 (some centres undefined) [US20250313563, Compound 932643] | 5.30 to 6.00 | 6.00 to 7.00
6 | CC1(C)CC(=O)C2=C(C1)NC1=C(CN=N1)C21CNC1 [US20250313563, Compound 912075] | < 5.30 | 5.30 to 6.00
7 | CCC1(c2cccc(N(CCOC)C(C)=O)c2)C2=CN=NC2NC2=C1C(=O)CC(C)(C)C2 (centres undefined) [US20250313563, Compound 893306] | > 7.00 | > 7.00
8 | CCC1(c2cccc(-c3ccnc(N(C)C)c3)c2)C2=C(CC(C)(C)CC2=O)NC2N=NC(C)=C21 (centres undefined) [US20250313563, Compound 883990] | 6.00 to 7.00 | > 7.00
9 | CC[C@@]1(c2cccc(N(C)c3ccnc(OC)c3)c2)C2=CN=NC2NC2=C1C(=O)CC(C)(C)C2 (some centres undefined) [US20250313563, Compound 932662] | < 5.30 | < 5.30
10 | CC[C@@]1(c2ccccc2)C2=CN=NC2NC2=C1C(=O)[C@H](C)C[C@H]2C (some centres undefined) [US20250313563, Compound 865201] | 6.00 to 7.00 | > 7.00
11 | CCC1(c2cccc(N(C(C)=O)C3CCCC3)c2)C2=CN=NC2NC2=C1C(=O)CC(C)(C)C2 (centres undefined) [US20250313563, Compound 912069] | > 7.00 | > 7.00
12 | CC[C@@H]1C[C@]2(CCO1)C1=C(N=NC1)NC1=C2C(=O)CC(C)(C)C1 [US20250313563, Compound 924715] | 6.00 to 7.00 | > 7.00
13 | CCC1(c2cccc(N3CCc4ccncc4C3)c2)C2=CN=NC2NC2=C1C(=O)CC(C)(C)C2 (centres undefined) [US20250313563, Compound 917148] | < 5.30 | 5.30 to 6.00
14 | CCC1(c2cccc(N3CCCC[C@@H]3C)c2)C2=CN=NC2NC2=C1C(=O)CC(C)(C)C2 (some centres undefined) [US20250313563, Compound 885217] | 6.00 to 7.00 | 6.00 to 7.00
15 | CC(C)[C@@H]1C[C@]2(CCO1)C1=C(N=NC1)NC1=C2C(=O)CC(C)(C)C1 [US20250313563, Compound 884013] | < 5.30 | 5.30 to 6.00
16 | CCC1(c2cccc(N(C)c3cccc(C(F)(F)F)n3)c2)C2=CN=NC2NC2=C1C(=O)CC(C)(C)C2 (centres undefined) [US20250313563, Compound 913122] | 6.00 to 7.00 | 6.00 to 7.00
17 | CCC1(c2cccc(-c3cnn(C)c3)c2)C2=C(CC(C)(C)CC2=O)NC2N=NC(C(F)(F)F)=C21 (centres undefined) [US20250313563, Compound 801445] | > 7.00 | > 7.00
18 | CC[C@]1(c2cccc(-c3cnn(C)c3)c2)C2=CN=NC2NC2=C1C(=O)C[C@@H](C)C2 (some centres undefined) [US20250313563, Compound 823721] | 6.00 to 7.00 | 6.00 to 7.00
19 | CC[C@@]1(c2cccc(C(F)(F)F)c2)C2=C(N=NC2)NC2=C1C(=O)N(Cc1ccccc1)[C@@H]2C [US20250313563, Compound 930332] | < 5.30 | 5.30 to 6.00
20 | CC[C@]1(c2cccc(-c3ccnc(C)c3)c2)C2=CN=NC2NC2=C1C(=O)NC(C)(C)C2 (some centres undefined) [US20250313563, Compound 927325] | 6.00 to 7.00 | 6.00 to 7.00
21 | CC[C@]1(c2cccc(-c3ccnn3C)c2)C2=CN=NC2NC2=C1C(=O)NC(C)(C)C2 (some centres undefined) [US20250313563, Compound 927389] | > 7.00 and 5.30 to 6.00 | > 7.00 and 6.00 to 7.00
22 | CCC1(c2cccc(N(c3cccnc3)C(C)C)c2)C2=CN=NC2NC2=C1C(=O)CC(C)(C)C2 (centres undefined) [US20250313563, Compound 885344] | > 7.00 | > 7.00
23 | CC1(C)CC(=O)C2=C(C1)NC1=C(CN=N1)[C@]21CCCOCC1 [US20250313563, Compound 874535] | > 7.00 | > 7.00
24 | CC[C@]1(c2cccc(N3CCOc4ccccc43)c2)C2=CN=NC2NC2=C1C(=O)CC(C)(C)C2 (some centres undefined) [US20250313563, Compound 932635] | < 5.30 | < 5.30
25 | CC1(C)CC(=O)C2=C(C1)NC1=C(CN=N1)[C@@]21CCO[C@@H](C(C)(C)C)C1 [US20250313563, Compound 912113] | 5.30 to 6.00 | 5.30 to 6.00

Other lines, results leading:

Row | pIC50 [1] | pIC50 [2] | SMILES
26 | < 5.30 | < 5.30 | CC[C@]1(c2cccc(Oc3ncccn3)c2)C2=CN=NC2NC2=C1C(=O)NC(C)(C)C2 (some centres undefined) [US20250313563, Compound 949335]
27 | > 7.00 | > 7.00 | CC[C@@]1(c2cccc(-c3ccnc4ccc(Cl)cc34)c2)C2=CN=NC2NC2=C1C(=O)N(C)C(C)(C)C2 (some centres undefined) [US20250313563, Compound 948517]
28 | 6.00 to 7.00 | > 7.00 | CCC1(c2cccc(C(F)(F)F)c2)C2=CN=NC2NC2=C1C(=O)N(c1cccc(C)c1)CC2 (centres undefined) [US20250313563, Compound 948052]
29 | > 7.00 and 6.00 to 7.00 | > 7.00 | CC1(C)CC(=O)C2=C(C1)NC1=C(CN=N1)C21CCN(S(=O)(=O)c2cccc(OC(F)F)c2)CC1 [US20250313563, Compound 947242]
30 | < 5.30 | 5.30 to 6.00 | CC[C@]1(c2cccc(-c3ccnc(C)c3C)c2)C2=C(CC(C)(C)NC2=O)NC2N=NC(C)=C21 (some centres undefined) [US20250313563, Compound 948183]
31 | > 7.00 and 5.30 to 6.00 | > 7.00 and 6.00 to 7.00 | CC[C@@]1(c2cccc(S(=O)(=O)C3CC3)c2)C2=CN=NC2NC2=C1C(=O)N(C)C(C)(C)C2 (some centres undefined) [US20250313563, Compound 949177]
32 | > 7.00 and 6.00 to 7.00 | > 7.00 | CC1(C)CC(=O)C2=C(C1)NC1=C(CN=N1)[C@]21CCN(S(=O)(=O)c2ccccc2F)C1 [US20250313563, Compound 945718]
33 | < 5.30 | 5.30 to 6.00 | CC[C@@]1(c2cccc(-c3ccncc3C(F)(F)F)c2)C2=C(N=NC2)NC2=C1C(=O)C(C)(C)C2 [US20250313563, Compound 952757]
34 | < 5.30 | < 5.30 | CC[C@]1(c2cccc(-c3cnn(C)c3)c2)C2=C(CC(C)(C)NC2=O)NC2N=NC(C)=C21 (some centres undefined) [US20250313563, Compound 945611]
35 | 6.00 to 7.00 | > 7.00 | CCC1(c2cccc(-c3cnn(C)c3)c2)C2=C(CC(C)(C)NC2=O)NC2N=NC(F)=C21 (centres undefined) [US20250313563, Compound 948300]
36 | > 7.00 | > 7.00 | Cc1cc(-c2cccc3c2CCC[C@@]32C3=CN=NC3NC3=C2C(=O)CC(C)(C)C3)ccn1 (some centres undefined) [US20250313563, Compound 945549]
37 | < 5.30 | 5.30 to 6.00 | CC[C@]1(c2cccc(-c3ccnc4cc(F)c(F)cc34)c2)C2=CN=NC2NC2=C1C(=O)NC(C)(C)C2 (some centres undefined) [US20250313563, Compound 948664]
38 | > 7.00 and 6.00 to 7.00 | > 7.00 | CCC1(c2cccc(-c3ccnc4c3CCC4)c2)C2=C(CC(C)(C)NC2=O)NC2N=NC(C(F)(F)F)=C21 (centres undefined) [US20250313563, Compound 947862]
39 | > 7.00 and 6.00 to 7.00 | > 7.00 | CC[C@]1(c2cccc(Oc3ncccn3)c2)C2=C(CC(C)(C)NC2=O)NC2N=NC(Cl)=C21 (some centres undefined) [US20250313563, Compound 951606]
40 | > 7.00 | > 7.00 | CC[C@]1(c2cccc(-c3ccnn3C)c2)C2=CN=NC2NC2=C1C(=O)N[C@@]1(CCOC1)C2 (some centres undefined) [US20250313563, Compound 948017]
41 | 6.00 to 7.00 | 6.00 to 7.00 | CC(C)c1ccccc1S(=O)(=O)N1CCC2(CC1)C1=C(N=NC1)NC1=C2C(=O)CC(C)(C)C1 [US20250313563, Compound 947473]
42 | 6.00 to 7.00 | > 7.00 | COc1ccc(S(=O)(=O)N2CCC3(CC2)C2=C(N=NC2)NC2=C3C(=O)CC(C)(C)C2)c(C)c1C [US20250313563, Compound 945662]
43 | 5.30 to 6.00 | 6.00 to 7.00 | CC[C@@]1(c2ccccc2)C2=CN=NC2NC2=C1C(=O)[C@@H](F)C(C)(C)C2 (some centres undefined) [US20250313563, Compound 957403]
44 | < 5.30 | 6.00 to 7.00 | CC[C@@]1(c2cccc(-c3cc(C)nn3C)c2)C2=CN=NC2NC2=C1C(=O)CC(C)(C)[C@H]2F (some centres undefined) [US20250313563, Compound 947656]
45 | > 7.00 | > 7.00 | CCC1(c2cccc(S(=O)(=O)C(C)C)c2)C2=CN=NC2NC2=C1C(=O)NC(C)(C)C2 (centres undefined) [US20250313563, Compound 945464]
46 | < 5.30 | 6.00 to 7.00 | CC[C@]1(c2cccc(-c3ccnn3C3CC3(F)F)c2)C2=CN=NC2NC2=C1C(=O)NC(C)(C)C2 (some centres undefined) [US20250313563, Compound 949518]
47 | 6.00 to 7.00 | > 7.00 | CCC1(c2cccc(C(F)(F)F)c2)C2=CN=NC2NC2=C1C(=O)N(c1cscn1)CC2 (centres undefined) [US20250313563, Compound 950777]
48 | > 7.00 and 6.00 to 7.00 | > 7.00 and 6.00 to 7.00 | CC1(C)CC(=O)C2=C(C1)NC1=C(CN=N1)C21COC2(CN(C(=O)C3CCC3)C2)C1 (centres undefined) [US20250313563, Compound 947288]
49 | > 7.00 | > 7.00 | Cn1ccc(S(=O)(=O)N2CC[C@]3(C2)C2=C(N=NC2)NC2=C3C(=O)CC(C)(C)C2)n1 [US20250313563, Compound 945714]
50 | > 7.00 | > 7.00 | COc1ccc(S(=O)(=O)N2CCC3(CC2)C2=C(N=NC2)NC2=C3C(=O)CC(C)(C)C2)cc1Cl [US20250313563, Compound 947612]
51 | 5.30 to 6.00 | 6.00 to 7.00 | CC[C@]1(c2cccc(C(F)(F)F)c2)C2=C(N=NC2)NC2=C1C(=O)N[C@H]2C [US20250313563, Compound 945379]
52 | < 5.30 | 6.00 to 7.00 | Cc1cc(-c2cccc3c2CCC[C@]32C3=CN=NC3NC3=C2C(=O)CC(C)(C)C3)ccn1 (some centres undefined) [US20250313563, Compound 945550]
